What was measured:
[1] = biological target: T1, Angiotensin-converting enzyme (Oryctolagus cuniculus) (UniProt P12822); test: Percentage inhibition of angiotensin converting enzyme (rabbit lung) by the compound required to inhibit at 63 uM was evaluated
T1 sequence (whole entry): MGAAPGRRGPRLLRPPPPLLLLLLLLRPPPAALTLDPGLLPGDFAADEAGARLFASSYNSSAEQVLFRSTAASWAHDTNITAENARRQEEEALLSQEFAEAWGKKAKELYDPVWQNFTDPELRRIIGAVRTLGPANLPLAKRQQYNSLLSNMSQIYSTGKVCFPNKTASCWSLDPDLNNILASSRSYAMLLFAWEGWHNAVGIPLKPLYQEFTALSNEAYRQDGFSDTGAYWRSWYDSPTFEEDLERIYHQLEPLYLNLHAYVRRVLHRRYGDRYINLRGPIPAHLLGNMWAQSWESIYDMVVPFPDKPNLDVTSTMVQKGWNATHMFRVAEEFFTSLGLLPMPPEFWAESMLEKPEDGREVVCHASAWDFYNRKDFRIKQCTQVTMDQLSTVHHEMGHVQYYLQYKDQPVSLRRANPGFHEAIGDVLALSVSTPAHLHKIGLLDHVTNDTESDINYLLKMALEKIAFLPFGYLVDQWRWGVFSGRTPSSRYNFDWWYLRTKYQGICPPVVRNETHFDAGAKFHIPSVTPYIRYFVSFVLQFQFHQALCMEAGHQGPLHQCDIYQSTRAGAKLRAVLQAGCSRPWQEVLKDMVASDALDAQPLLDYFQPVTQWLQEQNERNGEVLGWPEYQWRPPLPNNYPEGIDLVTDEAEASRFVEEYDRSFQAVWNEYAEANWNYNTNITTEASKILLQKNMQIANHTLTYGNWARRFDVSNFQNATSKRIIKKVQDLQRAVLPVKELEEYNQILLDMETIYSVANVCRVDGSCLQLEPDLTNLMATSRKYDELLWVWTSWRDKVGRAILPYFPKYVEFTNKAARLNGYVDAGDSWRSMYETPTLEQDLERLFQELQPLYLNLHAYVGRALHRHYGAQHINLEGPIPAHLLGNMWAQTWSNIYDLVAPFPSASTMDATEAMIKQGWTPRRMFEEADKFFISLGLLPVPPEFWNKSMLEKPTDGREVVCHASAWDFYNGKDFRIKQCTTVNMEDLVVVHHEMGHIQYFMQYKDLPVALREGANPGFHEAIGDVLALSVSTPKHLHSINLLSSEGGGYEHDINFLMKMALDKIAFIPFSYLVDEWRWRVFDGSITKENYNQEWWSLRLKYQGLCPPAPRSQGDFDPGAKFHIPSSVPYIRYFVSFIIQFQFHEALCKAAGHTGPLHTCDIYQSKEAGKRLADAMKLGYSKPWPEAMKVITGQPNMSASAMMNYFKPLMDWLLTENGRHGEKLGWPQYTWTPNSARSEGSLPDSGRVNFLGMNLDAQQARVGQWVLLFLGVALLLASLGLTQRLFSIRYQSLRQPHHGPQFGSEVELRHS

[2] = biological target: T2, Carboxypeptidase A1 (Bos taurus) (UniProt P00730); test: Percentage inhibition of carboxypeptidase A (CPA, bovine, Type I) enzyme by the compound required to inhibit at 63 uM was evaluated
T2 sequence (whole entry): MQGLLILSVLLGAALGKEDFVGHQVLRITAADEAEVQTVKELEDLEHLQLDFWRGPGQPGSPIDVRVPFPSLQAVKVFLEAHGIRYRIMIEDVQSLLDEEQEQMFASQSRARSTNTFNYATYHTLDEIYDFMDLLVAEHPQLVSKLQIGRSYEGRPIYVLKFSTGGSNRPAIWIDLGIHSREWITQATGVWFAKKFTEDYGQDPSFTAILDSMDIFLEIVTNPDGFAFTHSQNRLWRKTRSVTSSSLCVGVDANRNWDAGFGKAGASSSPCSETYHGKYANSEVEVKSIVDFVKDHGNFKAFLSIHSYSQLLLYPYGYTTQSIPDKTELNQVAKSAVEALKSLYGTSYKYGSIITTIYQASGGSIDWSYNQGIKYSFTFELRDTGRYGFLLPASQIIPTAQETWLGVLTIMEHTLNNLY

[3] = biological target: T3, Carboxypeptidase A1 (Bos taurus, UniProt P00730); test: Inhibitory concentration required to inhibit carboxypeptidase A (CPA, bovine, Type I) was evaluated
T3 sequence (P00730 whole entry): T2 sequence (whole entry)

inhibition [1] | inhibition [2] | IC50 [3] | SMILES
2% | 17% | – | CC(C)(C)c1ccc(C(=O)N/N=C/c2cccc3ccccc23)cc1
3% | 33% | – | CC(C)(C)c1ccc(C(=O)N/N=C/c2ccccc2O)cc1
5% | – | 29 µM | CC(C)(C)c1ccc(C(=O)N/N=C/c2c(O)ccc3ccccc23)cc1

Reference: ChEMBL document CHEMBL1130458, “Inhibition of carboxypeptidase a by N-(4-t-Butylbenzoyl)-2-hydroxy-1-naphthaldehyde hydrazone” (Bioorg Med Chem Lett, 1997)
